Values of other authors, collected in patent US20210145036A1 (priority 2018, published 2021).

Conditions: in vivo

Substance: (1S,5S)-2,6,6-Trimethylbicyclo[3.1.1]hept-2-ene ((−)-α-Pinene)
- human pulmonary uptake: 60%
